Test results published in PubChem BioAssay AID2060627 (Molecular Pharmacology Branch, DTP, NCI, 2025).

These compounds were tested on 156681-154-R-J1-PDC complex spheroid viability (assay: Anticancer human tumor 156681-154-R-J1-PDC patient-derived melanoma cell line growth inhibition [CLK]). Conditions: second compound 0.1 µM; first compound 0.0316 µM; hits give low values.
In short: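 Multi-cell-type spheroids combined patient-derived tumor cells with HUVEC endothelial cells and human mesenchymal stem cells. Paired agents were dosed in half-log steps down from about clinical Cmax, or from 10 microM where Cmax was unknown.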
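Note: spheroids exposed to the agents for seven days; 100% = DMSO vehicle control viability.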

Compound | viability, T/C [%]
CCCS(=O)(=O)Nc1ccc(F)c(C(=O)c2c[nH]c3ncc(-c4ccc(Cl)cc4)cc23)c1F + CNC(=O)c1ccc(Nc2nc(OC3CCCC3)c3c(-c4ccc5nc(C)oc5c4)c[nH]c3n2)c(OC)c1 | 54.8
O=C(c1cc(Cc2n[nH]c(=O)c3ccccc23)ccc1F)N1CCN(C(=O)C2CC2)CC1 + CNC(=O)c1ccc(Nc2nc(OC3CCCC3)c3c(-c4ccc5nc(C)oc5c4)c[nH]c3n2)c(OC)c1 | 65.4
CC(Nc1ccc2c(c1)OCCn1cc(N3C(=O)OCC3C(F)F)nc1-2)C(N)=O (stereo not given) + CN1CCN(c2cc(C(=O)Nc3cc4cc(-c5cnn(C)c5)ccc4cn3)ccn2)CC1 | 73.4

Same assay, conditions: second compound 0.1 µM; first compound 0.1 µM; hits give low values

Compound | viability, T/C [%]
C=C(F)C(=O)N1CCN(c2nc(OCC3CCCN3C)nc3c2CCN(c2cccc4cccc(Cl)c24)C3)CC1CC#N (stereo not given) + CN1CCN(c2cc(C(=O)Nc3cc4cc(-c5cnn(C)c5)ccc4cn3)ccn2)CC1 | 94.6
COc1ccc([C@@H](O)c2cc(-c3ncnc4cc(N5CCOCC5)ccc34)c(F)cc2Cl)nn1 + CN1CCN(c2cc(C(=O)Nc3cc4cc(-c5cnn(C)c5)ccc4cn3)ccn2)CC1 | 84
CCCS(=O)(=O)Nc1ccc(F)c(C(=O)c2c[nH]c3ncc(-c4ccc(Cl)cc4)cc23)c1F + CNC(=O)c1ccc(Nc2nc(OC3CCCC3)c3c(-c4ccc5nc(C)oc5c4)c[nH]c3n2)c(OC)c1 | 57.4
O=C(c1cc(Cc2n[nH]c(=O)c3ccccc23)ccc1F)N1CCN(C(=O)C2CC2)CC1 + CNC(=O)c1ccc(Nc2nc(OC3CCCC3)c3c(-c4ccc5nc(C)oc5c4)c[nH]c3n2)c(OC)c1 | 72.5
CC(Nc1ccc2c(c1)OCCn1cc(N3C(=O)OCC3C(F)F)nc1-2)C(N)=O (stereo not given) + CN1CCN(c2cc(C(=O)Nc3cc4cc(-c5cnn(C)c5)ccc4cn3)ccn2)CC1 | 65.6

Same assay, conditions: second compound 0.1 µM; first compound 0.316 µM; hits give low values

Compound | viability, T/C [%]
C=C(F)C(=O)N1CCN(c2nc(OCC3CCCN3C)nc3c2CCN(c2cccc4cccc(Cl)c24)C3)CC1CC#N (stereo not given) + CN1CCN(c2cc(C(=O)Nc3cc4cc(-c5cnn(C)c5)ccc4cn3)ccn2)CC1 | 91.7
COc1ccc([C@@H](O)c2cc(-c3ncnc4cc(N5CCOCC5)ccc34)c(F)cc2Cl)nn1 + CN1CCN(c2cc(C(=O)Nc3cc4cc(-c5cnn(C)c5)ccc4cn3)ccn2)CC1 | 73.5
CCCS(=O)(=O)Nc1ccc(F)c(C(=O)c2c[nH]c3ncc(-c4ccc(Cl)cc4)cc23)c1F + CNC(=O)c1ccc(Nc2nc(OC3CCCC3)c3c(-c4ccc5nc(C)oc5c4)c[nH]c3n2)c(OC)c1 | 72.1
O=C(c1cc(Cc2n[nH]c(=O)c3ccccc23)ccc1F)N1CCN(C(=O)C2CC2)CC1 + CNC(=O)c1ccc(Nc2nc(OC3CCCC3)c3c(-c4ccc5nc(C)oc5c4)c[nH]c3n2)c(OC)c1 | 65.4
CC(Nc1ccc2c(c1)OCCn1cc(N3C(=O)OCC3C(F)F)nc1-2)C(N)=O (stereo not given) + CN1CCN(c2cc(C(=O)Nc3cc4cc(-c5cnn(C)c5)ccc4cn3)ccn2)CC1 | 43.5

Same assay, conditions: second compound 0.1 µM; first compound 1 µM; hits give low values

Compound | viability, T/C [%]
C=C(F)C(=O)N1CCN(c2nc(OCC3CCCN3C)nc3c2CCN(c2cccc4cccc(Cl)c24)C3)CC1CC#N (stereo not given) + CN1CCN(c2cc(C(=O)Nc3cc4cc(-c5cnn(C)c5)ccc4cn3)ccn2)CC1 | 79.5
COc1ccc([C@@H](O)c2cc(-c3ncnc4cc(N5CCOCC5)ccc34)c(F)cc2Cl)nn1 + CN1CCN(c2cc(C(=O)Nc3cc4cc(-c5cnn(C)c5)ccc4cn3)ccn2)CC1 | 58.2
CCCS(=O)(=O)Nc1ccc(F)c(C(=O)c2c[nH]c3ncc(-c4ccc(Cl)cc4)cc23)c1F + CNC(=O)c1ccc(Nc2nc(OC3CCCC3)c3c(-c4ccc5nc(C)oc5c4)c[nH]c3n2)c(OC)c1 | 63
O=C(c1cc(Cc2n[nH]c(=O)c3ccccc23)ccc1F)N1CCN(C(=O)C2CC2)CC1 + CNC(=O)c1ccc(Nc2nc(OC3CCCC3)c3c(-c4ccc5nc(C)oc5c4)c[nH]c3n2)c(OC)c1 | 80.9
CC(Nc1ccc2c(c1)OCCn1cc(N3C(=O)OCC3C(F)F)nc1-2)C(N)=O (stereo not given) + CN1CCN(c2cc(C(=O)Nc3cc4cc(-c5cnn(C)c5)ccc4cn3)ccn2)CC1 | 29.9

Same assay, conditions: second compound 0.1 µM; first compound 3.16 µM; hits give low values

Compound | viability, T/C [%]
C=C(F)C(=O)N1CCN(c2nc(OCC3CCCN3C)nc3c2CCN(c2cccc4cccc(Cl)c24)C3)CC1CC#N (stereo not given) + CN1CCN(c2cc(C(=O)Nc3cc4cc(-c5cnn(C)c5)ccc4cn3)ccn2)CC1 | 20
COc1ccc([C@@H](O)c2cc(-c3ncnc4cc(N5CCOCC5)ccc34)c(F)cc2Cl)nn1 + CN1CCN(c2cc(C(=O)Nc3cc4cc(-c5cnn(C)c5)ccc4cn3)ccn2)CC1 | 35
CCCS(=O)(=O)Nc1ccc(F)c(C(=O)c2c[nH]c3ncc(-c4ccc(Cl)cc4)cc23)c1F + CNC(=O)c1ccc(Nc2nc(OC3CCCC3)c3c(-c4ccc5nc(C)oc5c4)c[nH]c3n2)c(OC)c1 | 58.2
O=C(c1cc(Cc2n[nH]c(=O)c3ccccc23)ccc1F)N1CCN(C(=O)C2CC2)CC1 + CNC(=O)c1ccc(Nc2nc(OC3CCCC3)c3c(-c4ccc5nc(C)oc5c4)c[nH]c3n2)c(OC)c1 | 82.8
CC(Nc1ccc2c(c1)OCCn1cc(N3C(=O)OCC3C(F)F)nc1-2)C(N)=O (stereo not given) + CN1CCN(c2cc(C(=O)Nc3cc4cc(-c5cnn(C)c5)ccc4cn3)ccn2)CC1 | 20

Same assay, conditions: second compound 0.1 µM; first compound 10 µM; hits give low values

Compound | viability, T/C [%]
C=C(F)C(=O)N1CCN(c2nc(OCC3CCCN3C)nc3c2CCN(c2cccc4cccc(Cl)c24)C3)CC1CC#N (stereo not given) + CN1CCN(c2cc(C(=O)Nc3cc4cc(-c5cnn(C)c5)ccc4cn3)ccn2)CC1 | 0.6
COc1ccc([C@@H](O)c2cc(-c3ncnc4cc(N5CCOCC5)ccc34)c(F)cc2Cl)nn1 + CN1CCN(c2cc(C(=O)Nc3cc4cc(-c5cnn(C)c5)ccc4cn3)ccn2)CC1 | 16.8
CCCS(=O)(=O)Nc1ccc(F)c(C(=O)c2c[nH]c3ncc(-c4ccc(Cl)cc4)cc23)c1F + CNC(=O)c1ccc(Nc2nc(OC3CCCC3)c3c(-c4ccc5nc(C)oc5c4)c[nH]c3n2)c(OC)c1 | 10.1
O=C(c1cc(Cc2n[nH]c(=O)c3ccccc23)ccc1F)N1CCN(C(=O)C2CC2)CC1 + CNC(=O)c1ccc(Nc2nc(OC3CCCC3)c3c(-c4ccc5nc(C)oc5c4)c[nH]c3n2)c(OC)c1 | 60.5
CC(Nc1ccc2c(c1)OCCn1cc(N3C(=O)OCC3C(F)F)nc1-2)C(N)=O (stereo not given) + CN1CCN(c2cc(C(=O)Nc3cc4cc(-c5cnn(C)c5)ccc4cn3)ccn2)CC1 | 13.7

Same assay, conditions: second compound 0.316 µM; first compound 0.0316 µM; hits give low values

Compound | viability, T/C [%]
C=C(F)C(=O)N1CCN(c2nc(OCC3CCCN3C)nc3c2CCN(c2cccc4cccc(Cl)c24)C3)CC1CC#N (stereo not given) + CN1CCN(c2cc(C(=O)Nc3cc4cc(-c5cnn(C)c5)ccc4cn3)ccn2)CC1 | 22.1
COc1ccc([C@@H](O)c2cc(-c3ncnc4cc(N5CCOCC5)ccc34)c(F)cc2Cl)nn1 + CN1CCN(c2cc(C(=O)Nc3cc4cc(-c5cnn(C)c5)ccc4cn3)ccn2)CC1 | 15.7
